The source of these data is US20240034736A1, “HSD17B13 INHIBITORS AND USES THEREOF” (FL2022-001, Inc., priority 2020, published 2024).

The structures appear in SMILES notation. Where only a bound is given, the exact number is not on record here.

Chain of Recombinant human HSD17B13 enzyme (Q7Z5P4 20-300): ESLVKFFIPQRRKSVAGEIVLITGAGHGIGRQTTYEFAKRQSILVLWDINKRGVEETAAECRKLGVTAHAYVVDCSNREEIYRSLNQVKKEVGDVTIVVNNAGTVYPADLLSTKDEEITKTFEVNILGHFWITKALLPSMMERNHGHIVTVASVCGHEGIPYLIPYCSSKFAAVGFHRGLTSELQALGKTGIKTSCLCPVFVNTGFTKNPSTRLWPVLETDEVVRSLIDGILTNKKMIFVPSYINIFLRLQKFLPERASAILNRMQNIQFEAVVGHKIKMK

The first assay concerns the target Recombinant human HSD17B13 enzyme (Homo sapiens (Human), UniProt Q7Z5P4). Briefly: HSD17b13 NAD(P)H-Glo Biochemical Assay. To be noted: 50 uM estradiol, 1 mM NAD+; read-out: HSD17β13 IC50. In short, it runs like this: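 Luminescent NAD(P)H-Glo detection (1 h, RT) quantified cofactor reduction after a 3 h, 37° C reaction of human HSD17B13 with estradiol (50 uM final) and NAD+ (1 mM final). Compounds were first pre-incubated 20 min at RT with enzyme in Tris pH 7.4 buffer containing Tween-20 and BSA.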
Regarding `CS(=O)(=O)N1CCN(c2cc3cn(-c4cc(O)c(Cl)c(F)c4)nc3cn2)CC1` [Compound 19.18, 2-Chloro-3-fluoro-5-(5-(4-(methylsulfonyl)piperazin-1-yl)-2H-pyrazolo[3,4-c]pyridine-2-yl)phenol], the IC50 was 0.1 to 1 µM.

In the case of `CS(=O)(=O)N1CCN(c2cc(Cl)c3c(cnn3-c3cc(O)c(F)c(F)c3)c2)CC1` [Compound 21.16, 5-(7-Chloro-5-(4-(methyl-sulfonyl)piperazin-1-yl)-1H-indazol-1-yl)-2,3-difluoro-phenol], the IC50 is 1 to 30 µM.

Consider `O=C(O)C1CCN(c2ccc3c(cnn3-c3ccc(F)c(O)c3)c2)CC1` [Compound 20.02, 1-(1-(4-Fluoro-3-hydroxy-phenyl)-1H-indazol-5-yl)-piperidine-4-carboxylic acid], for which the IC50 is 1 to 30 µM. Same read-out and setting: next, `CS(=O)(=O)N1CCC(c2cc3cnn(-c4cc(O)c(F)c(F)c4)c3cc2Cl)CC1` [Compound 27.01, 5-(6-Chloro-5-(1-(methyl-sulfonyl)piperidin-4-yl)-1H-indazol-1-yl)-2,3-difluoro-phenol]: 1 to 30 µM; `Cc1cc(O)c(F)c(-n2ncc3cc(N4CCN(S(C)(=O)=O)CC4)ccc32)c1` [Compound 28.05, 2-Fluoro-5-methyl-3-(5-(4-(methylsulfonyl)piperazin-1-yl)-1H-indazol-1-yl)phenol]: 1 to 30 µM; `Cc1nn(-c2cc(C(F)(F)F)c(F)c(O)c2F)c2cnc(N3CCOC4(CCC4)C3)nc12` [Compound 19.82, 2,6-Difluoro-3-(3-methyl-5-(5-oxa-8-azaspiro[3.5]nonan-8-yl)-1H-pyrazolo[4,3-d]pyrimidin-1-yl)-5-(trifluoromethyl)phenol]: below 0.1 µM. On the same count and under the same terms, next, `Cc1nn(-c2cc(C(F)(F)F)c(F)c(O)c2F)c2cc(Cl)c(N3CCOCC34CC4)nc12` [Compound 19.114, 3-(6-Chloro-3-methyl-5-(7-oxa-4-azaspiro[2.5]octan-4-yl)-1H-pyrazolo[4,3-b]pyridin-1-yl)-2,6-difluoro-5-(trifluoromethyl)phenol]: below 0.1 µM. `Oc1ccc(-c2ccc3c(cnn3-c3cc(O)c(F)c(F)c3)c2)cc1Cl` [Compound 3.03, 5-(5-(3-Chloro-4-hydroxyphenyl)-1H-indazol-1-yl)-2,3-difluorophenol]: the IC50 is 0.1 to 1 µM. On to `COC1CCN(c2ccc3c(cnn3-c3cc(O)c(F)c(F)c3)c2)C1` (centres unmarked) [Compound 21.22, 2,3-Difluoro-5-(5-(3-methoxy-pyrrolidin-1-yl)-1H-indazol-1-yl)phenol], for which the IC50 lay in the range of 1 to 30 µM. With `CS(=O)(=O)N1CCN(c2ccc3c(cnn3-c3cc(O)cc(C(F)(F)F)c3)c2)CC1` [Compound 28.07, 3-(5-(4-(Methylsulfonyl)-piperazin-1-yl)-1H-indazol-1-yl)-5-(trifluoromethyl)phenol], the IC50 lay within 0.1 to 1 µM. The same measure, in the same setting: next, `COC1CCN(c2ccc3c(cnn3-c3ccc(F)c(O)c3)c2)CC1` [Compound 21.02, 2-Fluoro-5-(5-(4-methoxy-piperidin-1-yl)-1H-indazol-1-yl)phenol]: 1 to 30 µM; `COc1cccc(-c2ccc3c(cnn3-c3ccc(F)c(O)c3)c2)c1` [Compound 5.21, 2-Fluoro-5-(5-(3-methoxyphenyl)-1H-indazol-1-yl)phenol]: 1 to 30 µM. In the case of `CS(=O)(=O)N1CCN(c2cc3cnn(-c4ccc(Cl)c(O)c4F)c3cc2F)CC1` [Compound 19.03, 6-Chloro-2-fluoro-3-(6-fluoro-5-(4-(methylsulfonyl)piperazin-1-yl)-1H-indazol-1-yl)phenol], the IC50 fell in the range of 0.1 to 1 µM.

The same assay, now with this note: read-out: HSD17β13 inhibition at 30 uM.
For `CS(=O)(=O)N1CCC(C(=O)O)(c2ccc3c(cnn3-c3cc(O)c(F)c(F)c3)c2)CC1` [Compound 28, 4-(1-(3,4-Difluoro-5-hydroxyphenyl)-1H-indazol-5-yl)-1-(methylsulfonyl)piperidine-4-carboxylic Acid], the inhibition at 30 µM turned out to be 49%.
